Entries after “also recorded” stand apart in the source; their conditions may differ.
How the values were obtained:
Plasmodium falciparum = assay: Sporozoite invasion assay, P. falciparum in HepG2-CD81 cells; type: cell-based
Protocol: (§1) Anopheles stephensi mosquitoes were fed on mice infected with Plasmodium yoelii 17XNL parasites. On day 14 post bloodmeal, salivary glands were harvested, homogenized, sporozoite number was determined using a hemocytometer and the indicated number of sporozoites was added to cell monolayers, Plasmodium falciparum sporozoites were generated by membrane feeding An. stephensi mosquitoes using gametocyte cultures generated in vitro.
(§2) HepG2-CD81 (14) cells were maintained in DMEM supplemented with 10% fetal calf serum and 1 mM glutamine (DMEM/FCS), mAb 2E6 was used for development assays and is directed against Plasmodium Hsp 70 (15) and mAb 2A10 is directed against the repeat region of P. falciparum CSP and was used for invasion assays.
(§3) 5×10^5 HepG2-CD81 cells were plated on collagen coated Lab-Tek wells and allowed to adhere overnight. The following day, cells were preincubated with 400 uM of compound for 30 minutes at 37° C. Controls were pre-incubated with DMSO at the same concentration in which it was found in the compound solutions. 10^5 sporozoites were added to each well and in the case of P. falciparum, incubated for 1.5 hours and scored for invasion whereas in the case of P. yoelii, incubated for 44 hours and scored for exoerythrocytic stages.

Plasmodium berghei [1] = assay: Sporozoite infection assay, P. berghei in Hepa1-6 cells; type: cell-based; details: for effect on infection (in words): Hepa1-6 cells
Plasmodium yoelii [2] = assay: Sporozoite development assay, P. yoelii in HepG2-CD81 cells; type: cell-based
Protocol: as §1, §2, §3

CD81-LEL = target: T1, CD81-LEL (Homo sapiens, UniProt P60033); assay: Surface plasmon resonance binding of ligands to immobilized CD81-LEL
T1 construct: A recombinant form of the CD81-LEL protein with a GST tag; gift of Dr. Shoshana Levy, Stanford University
T1 sequence (P60033 113-201 limits assumed): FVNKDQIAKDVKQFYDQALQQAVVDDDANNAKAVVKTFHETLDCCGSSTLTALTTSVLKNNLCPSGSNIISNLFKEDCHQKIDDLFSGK
Protocol: SPR analysis was performed using a Biacore T200 workstation (GE Healthcare, NJ, USA). A recombinant form of the CD81-LEL protein with a GST tag (generously provided by Dr. Shoshana Levy, Stanford University) was used to confirm, using an established experimental technique, the binding of several ligands to the protein. Briefly, 10 μM CD81-LEL-GST diluted into 10 mM Na-Acetate buffer pH 4.5 was immobilized for 15 min at a flow speed of 5 μl/min onto a CM5 sensor chip using amine-coupling (EDC-NHS), Approximately 20,000 RU of protein were immobilized on the chip. The ligands were prepared as 600 μM solutions in PBS-0.05% Tween-80 (the running buffer) and they were introduced to the protein using a pre-programmed 3 minute association and 1 minute dissociation interval.
SPR analysis was performed using a Biacore T100 workstation (GE Healthcare, NJ, USA). […] Approximately 20,000 RU of protein were immobilized on the chip. The ligands were prepared as 200 uM solutions in PBS-1% DMSO (the running buffer) and they were introduced to the protein using a pre-programmed 3 min association and 1 min dissociation interval.

Plasmodium yoelii [3] = assay: Sporozoite infection assay, P. yoelii in Hepa1-6 cells; type: cell-based
Plasmodium berghei [4] = assay: Sporozoite infection assay, P. berghei in HepG2 cells; type: cell-based
[5] = target: T2, native CD81 on Raji cells (Homo sapiens, UniProt P60033); assay: Antibody neutralizing assay: inhibition of JS-81 anti-CD81 antibody binding on Raji cells (FACS); type: cell-based; details: for inhibition at 50 µM: 50 μM ligand; for inhibition at 50 µM / inhibition at 100 µM / inhibition at 400 µM: Raji cells, read-out: Inhibition of JS-81 Binding (%); for inhibition at 100 µM: 100 μM ligand; for inhibition at 400 µM: 400 μM ligand
T2 construct: endogenous in cells; host or cells: Raji cells (human B cell line)
T2 sequence (P60033 1-236): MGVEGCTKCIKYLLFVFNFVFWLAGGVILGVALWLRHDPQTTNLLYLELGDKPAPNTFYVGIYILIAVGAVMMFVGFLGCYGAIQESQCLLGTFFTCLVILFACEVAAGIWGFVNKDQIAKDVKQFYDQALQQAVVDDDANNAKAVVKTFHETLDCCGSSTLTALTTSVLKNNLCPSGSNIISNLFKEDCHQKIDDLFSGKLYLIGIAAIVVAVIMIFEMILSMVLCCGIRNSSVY
Protocol: For antibody neutralization assay Raji cells were used, a human B cell line that expressed high amounts of CD81 on the surface (data not shown), Cells were grown in RPMI medium (10% FCS, 1% penicillin/streptomycin, 1% L-glutamine, 1% non-essential amino acids, 1% sodium pyruvate, pH 7.4, at 37° C. with 5% CO2). 2×10^5 cells were incubated with or without different concentrations (50 μM, 100 μM, 400 μM and 1 mM) of indicated inhibitor for 20 min at room temperature, subsequently 1 ul (16 ng/μl) of FITC-labeled anti CD81 antibody (BD Pharmingen, 551108) was added to the cells and incubated for 20 min (antibody titration was performed to obtain a working dilution range, data not shown). Cells were washed and analyzed by FACS (BD FACSCalibur, software: Cell Quest Pro). Mean Fluorescence Intensity MFI was calculated using Flowjo software (TreesStar, www.flowjo.com).

`O=C(O)/C(=C\c1ccccc1)c1ccccc1` [Ligand 40614, 2,3-diphenylprop-2-enoate] was tested, and the “effect on infection (in words)” value (Plasmodium falciparum; P. falciparum) was “wasn't found to enhance infection”, the “effect on infection (in words)” value (Plasmodium berghei [1]; P. berghei) was “enhancing development” and the “effect on infection (in words)” value (Plasmodium yoelii [2]; P. yoelii, HepG2-CD81) was “enhance the infection”. The “Binding (change in response units)” value (CD81-LEL; SPR, 3 min association) was 52.5 response units, the “Dissociation 1 (change in response units)” value (CD81-LEL; SPR, dissociation interval) was 50.8 response units and the “Dissociation 2 (change in response units)” value (CD81-LEL; SPR, dissociation interval) was 43 response units. For the same molecule, the “effect on infection (in words)” value (Plasmodium yoelii [3]; P. yoelii, Hepa1-6 cells) was “enhancing development”, the “effect on infection (in words)” value (Plasmodium berghei [4]) was “enhancing development” and the inhibition at 50 µM [5] was 0%. It also gave an inhibition at 100 µM [5] of 8% and an inhibition at 400 µM [5] of 26%.

`COc1cc(-c2ccc(Nc3ccccc3C(=O)O)c(OC)c2)ccc1Nc1ccccc1C(=O)O` [Ligand 73735, 2-[4-[4-(2-carboxylatoanilino)-3-methoxyphenyl]-2-methoxyanilino]benzoate] was tested, and the “Percent Infection” value (Plasmodium falciparum; HepG2-CD81, Plasmodium falciparum, 400 uM compound) was 3.2%, the “effect on infection (in words)” value (Plasmodium falciparum; P. falciparum) was “inhibit the infection” and the “percentage of infection inhibition” value (Plasmodium falciparum; P. falciparum, HepG2-CD81) was 96.8%. For the same molecule, the “Percent Infection” value (Plasmodium berghei [1]; Hepa1-6 Cells, Plasmodium berghei) was 17.7%, the “percentage of infection inhibition” value (Plasmodium berghei [1]; P. berghei, Hepa1-6) was 82.3% and the “effect on infection (in words)” value (Plasmodium berghei [1]; P. berghei) was “Inhibition”. The “Percent Infection” value (Plasmodium yoelii [2]; HepG2-CD81, Plasmodium yoelii, 400 uM compound) was 23%, the “effect on infection (in words)” value (Plasmodium yoelii [2]; P. yoelii, HepG2-CD81) was “inhibit; also recorded: inhibitory effect” and the “percentage of infection inhibition” value (Plasmodium yoelii [2]; P. yoelii, HepG2-CD81) was 77%. For the same molecule, the “binding to CD81 by SPR (in words)” value (CD81-LEL) was “bind to CD81-LEL”, the “Percent Infection” value (Plasmodium yoelii [3]; Hepa1-6 Cells, Plasmodium yoelii) was 38.3% and the “percentage of infection inhibition” value (Plasmodium yoelii [3]; P. yoelii, Hepa1-6) was 61.7%. The inhibition at 50 µM [5] was 0%, the “inhibition of anti-CD81 binding (in words)” value ([5]; 100 uM and 400 uM) was “inhibit anti-CD81 binding to CD81-LEL in a dose dependent manner” and the inhibition at 100 µM [5] was 0%. For the same molecule, the inhibition at 400 µM [5] was 24%.

Reference: patent US10548895B2, “Ligands that target Plasmodium sporozoite binding sites on CD81 and therapeutic methods using them” (American University In Cairo (AUC), priority 2014, dated 2020)
